# Data reported in ChEMBL document CHEMBL5523759, “Discovery of Novel HDAC3 Inhibitors with PD-L1 Downregulating/Degrading and Antitumor Immune Effects” (J Med Chem, 2024).
# pIC50: −log10 of the molar value. The source made the active and inactive calls. No cut-off for these calls is given here.
# Assays:
# [1] = test system: MCF7; experiment: cells; conditions: Homo sapiens, MCF7, 48 h
# Description: Antiproliferative activity against human MCF7 cells assessed as reduction in cell viability measured for 48 hrs by MTT assay
# [2] = target: T1, Histone deacetylase 3 (Mus musculus) (UniProt O88895); experiment: Inhibition of HDAC3 in mouse B16-F10 cells assessed as upregulation of acetylated H3 level at 2 uM measured for 24 hrs by Western blot analysis; format: cell-based
# T1 sequence (whole entry): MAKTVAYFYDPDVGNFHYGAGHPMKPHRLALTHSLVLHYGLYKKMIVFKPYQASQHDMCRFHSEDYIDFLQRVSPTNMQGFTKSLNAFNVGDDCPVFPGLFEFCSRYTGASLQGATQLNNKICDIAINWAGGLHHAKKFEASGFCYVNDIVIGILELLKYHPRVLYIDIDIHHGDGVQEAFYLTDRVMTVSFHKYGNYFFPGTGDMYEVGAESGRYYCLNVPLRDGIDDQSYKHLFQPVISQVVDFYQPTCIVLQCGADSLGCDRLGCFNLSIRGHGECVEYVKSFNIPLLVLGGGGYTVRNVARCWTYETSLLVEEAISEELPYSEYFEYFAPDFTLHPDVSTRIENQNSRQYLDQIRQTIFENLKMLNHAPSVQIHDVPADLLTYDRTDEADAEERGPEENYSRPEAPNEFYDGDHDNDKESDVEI
# [3] = target: Histone deacetylase 1 (Homo sapiens, UniProt Q13547); experiment: Inhibition of human recombinant HDAC1 using Ac-Leu-Gly-Lys (Ac)-AMC as substrate preincubated with compound for 10 mins followed by substrate addition and measured after 45 mins by TECAN microtiter plate reader analysis
# [4] = AUC (0 to t) in Sprague-Dawley rat at 20 mg/kg, po measured up to 12 hrs by LC-MS/MS analysis; format: ADME, organism-based; conditions: in vivo
# [5] = target: Programmed cell death 1 ligand 1 (Mus musculus, UniProt Q9EP73); experiment: Induction of PD-L1 degradation in mouse B16-F10 cells measured for 24 hrs by Western blot analysis; format: cell-based
# [6] = Metabolic stability in rat liver microsome assessed as parent compound remaining measured at 15 mins; format: ADME; conditions: liver microsomes, read-out: Stability
# [7] = MRT (0 to infinity) in Sprague-Dawley rat at 20 mg/kg, po measured up to 12 hrs by LC-MS/MS analysis; format: ADME, organism-based; conditions: in vivo
# [8] = Metabolic stability in mouse liver microsome assessed as parent compound remaining measured at 15 mins; format: ADME; conditions: liver microsomes, read-out: Stability
# [9] = Metabolic stability in mouse liver microsome assessed as parent compound remaining measured immediately; format: ADME; conditions: liver microsomes, read-out: Stability
# [10] = Metabolic stability in mouse liver microsome assessed as parent compound remaining measured at 5 mins; format: ADME; conditions: liver microsomes, read-out: Stability
# [11] = target: Programmed cell death 1 ligand 1 (Mus musculus) (UniProt Q9EP73); experiment: Induction of PD-L1 degradation in mouse B16-F10 cells 0.5 to 10 uM measured for 4 hrs in presence of MG132 by Western blot analysis; format: cell-based; conditions: dose 0.5-10 µM
# [12] = Toxicity in C57BL/6 mouse implanted with mouse B16-F10 cells assessed as liver damage at 25 mg/kg, po administered for 9 days by H and E staining based analysis; format: organism-based; conditions: in vivo, 216 h, time 9 day
# [13] = MRT (0 to t) in Sprague-Dawley rat at 20 mg/kg, po measured up to 12 hrs by LC-MS/MS analysis; format: ADME, organism-based; conditions: in vivo
# [14] = test system: B16-F10; experiment: Antitumor activity against mouse B16-F10 cells implanted in C57BL/6 mouse model assessed as decrease in PD-L1 level at 25 mg/kg, po administered for 9 days by Western blot analysis; format: functional, organism-based; conditions: time 9.0 day
# [15] = target: Tubulin; experiment: Inhibition of tubulin polymerization (unknown origin) measured upto 20 mins by spectrophotometer analysis; format: protein-complex assay, Homo sapiens
# [16] = Acute toxicity in po dosed C57BL/6J mouse assessed as lethal dose administered for 14 days; format: organism-based; conditions: in vivo, time 14 day
# [17] = Toxicity in C57BL/6 mouse implanted with mouse B16-F10 cells assessed as heart damage at 25 mg/kg, po administered for 9 days by H and E staining based analysis; format: organism-based; conditions: in vivo, 216 h, time 9 day
# [18] = Metabolic stability in mouse liver microsome assessed as parent compound remaining measured at 30 mins; format: ADME; conditions: liver microsomes, read-out: Stability
# [19] = Acute toxicity in C57BL/6J mouse assessed as survival rate at 500 mg/kg, po administered for 14 days; format: organism-based; conditions: in vivo, time 14 day
# [20] = Clearance in Sprague-Dawley rat at 2 mg/kg, iv measured up to 12 hrs by LC-MS/MS analysis; format: ADME, organism-based; conditions: in vivo
# [21] = Metabolic stability in rat liver microsome assessed as parent compound remaining measured at 30 mins; format: ADME; conditions: liver microsomes, read-out: Stability
# [22] = Tmax in Sprague-Dawley rat at 2 mg/kg, iv measured up to 12 hrs by LC-MS/MS analysis; format: ADME, organism-based; conditions: in vivo
# [23] = test system: B16-F10; experiment: Antitumor activity against mouse B16-F10 cells implanted in C57BL/6 mouse model assessed as reduction in tumor volume at 25 mg/kg, IG administered for 9 days; format: functional, organism-based; conditions: time 9.0 day
# [24] = target: Programmed cell death 1 ligand 1 (Mus musculus) (UniProt Q9EP73); experiment: Induction of PD-L1 degradation in mouse B16-F10 cells assessed as upregulation of CTSB level at 1 to 4 uM measured for 4 hrs by Western blot analysis; format: cell-based; conditions: dose 1-4 µM
# [25] = Toxicity in C57BL/6 mouse implanted with mouse B16-F10 cells assessed as lung damage at 25 mg/kg, po administered for 9 days by H and E staining based analysis; format: organism-based; conditions: in vivo, 216 h, time 9 day
# [26] = test system: B16-F10; experiment: Antitumor activity against mouse B16-F10 cells implanted in C57BL/6 mouse model assessed as increase in Ac-H3 expression in tumor at 25 mg/kg, po administered for 9 days by Western blot analysis; format: functional, organism-based; conditions: time 9.0 day
# [27] = Metabolic stability in mouse liver microsome assessed as half life; format: ADME; conditions: liver microsomes
# [28] = test system: B16-F10; experiment: Antitumor immunity against mouse B16-F10 cells implanted in C57BL/6 mouse model assessed as increase in CD3+ CD8+ T cells at 25 mg/kg, po administered for 9 days (reference value: 1.01%); format: functional; conditions: time 9 day
# [29] = test system: B16-F10; experiment: Antitumor activity against mouse B16-F10 cells implanted in C57BL/6 mouse model assessed as tumor growth inhibition at 25 mg/kg, IG administered for 9 days; format: functional; conditions: B16-F10, po, 216 h, time 9 day, read-out: TGI
# [30] = AUC (0 to infinity) in Sprague-Dawley rat at 2 mg/kg, iv measured up to 12 hrs by LC-MS/MS analysis; format: ADME, organism-based; conditions: in vivo
# [31] = Half life in Sprague-Dawley rat at 20 mg/kg, po measured up to 12 hrs by LC-MS/MS analysis; format: ADME, organism-based; conditions: in vivo
# [32] = MRT (0 to t) in Sprague-Dawley rat at 2 mg/kg, iv measured up to 12 hrs by LC-MS/MS analysis; format: ADME, organism-based; conditions: in vivo
# [33] = Metabolic stability in rat liver microsome assessed as parent compound remaining measured immediately; format: ADME; conditions: liver microsomes, read-out: Stability
# [34] = test system: B16-F10; experiment: Antitumor activity against mouse B16-F10 cells implanted in C57BL/6 mouse model assessed as induction of PD-L1 degradation at 25 mg/kg, po administered for 9 days by Western blot analysis; format: functional, organism-based; conditions: time 9.0 day
# [35] = Metabolic stability in rat liver microsome assessed as parent compound remaining measured at 45 mins; format: ADME; conditions: liver microsomes, read-out: Stability
# Programmed cell death 1 ligand 1 (Mus musculus), sequence (Q9EP73 whole entry): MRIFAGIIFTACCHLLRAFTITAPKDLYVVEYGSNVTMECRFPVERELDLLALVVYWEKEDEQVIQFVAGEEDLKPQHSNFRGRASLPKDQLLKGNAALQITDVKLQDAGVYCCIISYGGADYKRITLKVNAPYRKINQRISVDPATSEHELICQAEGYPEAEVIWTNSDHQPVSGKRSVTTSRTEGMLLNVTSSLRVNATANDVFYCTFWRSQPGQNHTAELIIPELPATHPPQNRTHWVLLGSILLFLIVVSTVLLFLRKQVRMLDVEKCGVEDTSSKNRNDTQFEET
# Histone deacetylase 1, sequence (Q13547 whole entry): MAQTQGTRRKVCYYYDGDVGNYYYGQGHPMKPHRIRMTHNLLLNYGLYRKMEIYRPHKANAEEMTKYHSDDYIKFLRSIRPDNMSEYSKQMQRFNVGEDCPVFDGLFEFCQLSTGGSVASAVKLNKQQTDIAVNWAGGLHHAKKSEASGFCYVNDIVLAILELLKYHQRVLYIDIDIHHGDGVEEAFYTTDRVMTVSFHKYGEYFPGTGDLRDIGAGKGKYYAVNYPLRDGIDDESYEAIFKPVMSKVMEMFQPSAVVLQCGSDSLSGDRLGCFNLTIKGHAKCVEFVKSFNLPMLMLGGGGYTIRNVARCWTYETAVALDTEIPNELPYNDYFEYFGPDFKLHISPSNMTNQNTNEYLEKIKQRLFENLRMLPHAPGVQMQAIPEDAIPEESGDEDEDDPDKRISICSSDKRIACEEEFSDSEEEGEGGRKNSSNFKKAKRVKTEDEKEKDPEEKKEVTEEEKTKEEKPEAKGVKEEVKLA
# Programmed cell death 1 ligand 1, sequence (Q9EP73 whole entry): as the sequence (Q9EP73 whole entry) above
compound,measurement,setting,value
Nc1ccccc1NC(=O)c1ccc(-c2ncc(CNc3ccccc3)s2)cc1,pIC50,[1],5.48
same,inhibition,[2],Active
same,pIC50,[3],6.29
CCCNNC(=O)c1ccc(CNC(=O)c2ncc(CNc3ccccc3)s2)cc1,AUC(0-t) at 12 h,[4],2740 ng·h/mL
same,DC50,[5],5.7 µM
same,remaining at 0.25 h,[6],57.5%
same,MRT inf,[7],4.48 h
same,remaining at 0.25 h,[8],31.6%
same,remaining at 0 min,[9],100%
same,remaining at 5 min,[10],70.4%
same,Activity,[11],Active
same,Activity,[12],Non-Toxic
same,pIC50,[1],5.53
same,MRT last at 12 h,[13],3.19 h
same,Activity,[14],Active
same,pIC50,[15],5.14
same,LD50 at 336 h,[16],> 1000 mg/kg
same,Activity,[17],Non-Toxic
same,remaining at 0.5 h,[18],11.3%
same,survival at 336 h,[19],100%
same,clearance,[20],64.5 mL/min/kg
same,remaining at 0.5 h,[21],38.5%
same,Tmax,[22],8.4 min
same,Activity,[23],Active
same,Activity,[24],Active
same,Activity,[25],Non-Toxic
same,Activity,[26],Active
same,half-life,[27],9.69 min
same,Activity,[28],3.7%
same,inhibition in vivo at 25 mg/kg,[29],37%
same,AUC(0-inf),[30],529 ng·h/mL
same,half-life,[31],3.6 h
same,MRT last at 12 h,[32],0.52 h
same,remaining at 0 min,[33],100%
same,Activity,[34],Active
same,remaining at 0.75 h,[35],25.4%
same,pIC50,[3],6.14
